# Source: patent EP3409761B1, “CULTURE MEDIUM COMPOSITION, AND METHOD FOR CULTURING CELL OR TISSUE USING SAID COMPOSITION” (Nissan Chemical Corporation, priority 2012, dated 2014)
# Key:
# HepG2 cells [1] = assay: Toxicity test of compound to hepatocytes: LDH activity measurement; assay type: cell-based, human; settings: DAG 0.015%, 1 day
# Experimental: (§1) This aqueous solution was sterilized at 121°C for 20 min in an autoclave. On the other hand, HepG2 cells was mixed with DMEM medium (manufactured by WAKO) at 100000 cells/mL, and the cell suspension was dispensed to the wells of a 96-well flat bottom ultra low adhesion surface microplate (manufactured by Corning Incorporated, #3474) at 100 µL/well. […] Successively, this plate was cultured by being stood still in a CO2 incubator (37°C, 5% CO2) for 1 day.
# To the culture medium (100 µL) after culturing for 1 day was added DMEM medium (manufactured by WAKO, 100 µL), and the plate was centrifuged by 4316.4 m·s^-2 (440G) for 15 min. The supernatant (100 µL) was dispensed to a 96-well titer plate (manufactured by Corning Incorporated), a reaction mixture (100 µL) in a cytotoxicity detection kit (manufactured by Roche Applied Science) was added, and the mixture was stood under shading at room temperature for 30 min. Successively, according to the protocol of the above-mentioned kit, the absorbance at 490 nm (reference; 600 nm) was measured by an absorbance spectrometer (manufactured by Molecular Devices, SPECTRA MAX 190), whereby the rate of the disordered cell, that is, cell disorder rate (%), was measured.
# HepG2 cells [2] = assay: Toxicity test of compound to hepatocytes: number of viable cells (Cell Titer-Glo); assay type: cell-based, human; settings: DAG 0.015%, 1 day, no addition = 1
# Experimental: as §1
# The culture medium (50 µL) after culturing for 1 day was dispensed to a 96-well titer plate (manufactured by Corning Incorporated), to this culture medium was added a Cell Titer-Glo (registered trade mark) reagent (manufactured by Promega, 50 µL), and the mixture was incubated at room temperature for 10 min. The luminescence intensity was measured by a multiplate reader (manufactured by Molecular Devices, FlexStation3) to measure the number of viable cells.
# [3] = tested on: human squamous carcinoma cell line A431; assay: Effect of Gefitinib, Elrotinib on proliferation of A431 cells stimulated with human HB-EGF; assay type: cell-based; settings: DAG 0.015%
# Experimental: Each plate was cultured by being stood still in a CO2 incubator (37°C, 5% CO2). […] To the culture medium on days 4, 6 and 8 was added an ATP reagent (150 µL) (CellTiter-Glo (registered trade mark) Luminescent Cell Viability Assay, manufactured by Promega) to give a suspension, which was stood for about 10 min at room temperature, and the luminescence intensity (RLU value) was measured by FlexStation3 (manufactured by Molecular Devices), and the number of viable cells was measured by subtracting the luminescence value of the medium alone.
SMILES,cell disorder rate (HepG2 cells [1]; Troglitazone 20 µM) [%],cell disorder rate (HepG2 cells [1]; Troglitazone 40 µM) [%],cell disorder rate (HepG2 cells [1]; Troglitazone 60 µM) [%],cell disorder rate (HepG2 cells [1]; Troglitazone 100 µM) [%],relative cell number (HepG2 cells [2]; Troglitazone 20 µM),relative cell number (HepG2 cells [2]; Troglitazone 40 µM),relative cell number (HepG2 cells [2]; Troglitazone 60 µM),relative cell number (HepG2 cells [2]; Troglitazone 100 µM),"% Control value of the RLU value (ATP measurement) ([3]; drug 0.1 µM, day 4) [% Control]","% Control value of the RLU value (ATP measurement) ([3]; drug 0.1 µM, day 8) [% Control]","% Control value of the RLU value (ATP measurement) ([3]; drug 0.3 µM, day 4) [% Control]","% Control value of the RLU value (ATP measurement) ([3]; drug 0.3 µM, day 8) [% Control]","% Control value of the RLU value (ATP measurement) ([3]; drug 1 µM, day 4) [% Control]","% Control value of the RLU value (ATP measurement) ([3]; drug 1 µM, day 8) [% Control]","% Control value of the RLU value (ATP measurement) ([3]; drug 3 µM, day 4) [% Control]","% Control value of the RLU value (ATP measurement) ([3]; drug 3 µM, day 8) [% Control]"
Cc1c(C)c2c(c(C)c1O)CCC(C)(COc1ccc(CC3SC(=O)NC3=O)cc1)O2 (stereo not shown) [Troglitazone],2.68,14.7,22.5,60.7,0.68,0.50,0.48,0.39,,,,,,,,
C#Cc1cccc(Nc2ncnc3cc(OCCOC)c(OCCOC)cc23)c1 [Elrotinib],,,,,,,,,88,56,89,27,21,4,4,0
